Data from ChEMBL document CHEMBL5126551, “Spiral molecules with antimalarial activities: A review” (Eur J Med Chem, 2022).
pEC50, pIC50: −log10 of the molar value. In brackets after ≈: the same amount, converted by molar mass.

Assays:
Plasmodium falciparum [1] = assay: Antimalarial activity against chloroquine-sensitive Plasmodium falciparum 3D7 assessed as reduction in parasite growth incubated for 72 hrs by SYBR green I-based DNA quantification assay; assay type: functional, organism-based; settings: 3D7, 72 h
Plasmodium falciparum [2] = assay: Antimalarial activity against Plasmodium falciparum K1 infected in human red blood cells assessed as inhibition of parasite growth incubated for 48 hrs by Giema staining based assay; assay type: functional, organism-based, Red blood cell; settings: K1, Erythrocyte
Plasmodium falciparum [3] = assay: Antimalarial activity against chloroquine-resistant Plasmodium falciparum FCB-2 infected in human erythrocyte assessed as inhibition of parasite growth incubated for 48 hrs by [3H]-hypoxanthine incorporation assay based liquid scintillation counter method; assay type: functional, organism-based; settings: FCB-2, Erythrocyte
Plasmodium falciparum [4] = assay: Antimalarial activity against chloroquine, amodiaquine, quinine and artesunate-resistant Plasmodium falciparum NF-54 infected in human erythrocyte assessed as inhibition of parasite growth incubated for 48 hrs by [3H]-hypoxanthine incorporation assay based liquid scintillation counter method; assay type: functional, organism-based; settings: NF-54, Erythrocyte
Plasmodium falciparum [5] = assay: Antimalarial activity against chloroquine-sensitive Plasmodium falciparum 3D7 infected in human erythrocyte assessed as inhibition of parasite growth incubated for 66 hrs by [3H]-hypoxanthine incorporation assay based liquid scintillation spectrometric method; assay type: functional, organism-based; settings: 3D7, Erythrocyte
Plasmodium falciparum [6] = assay: Antimalarial activity against Plasmodium falciparum infected in human […] assessed as inhibition of parasite growth incubated for 30 hrs by [3H]-hypoxanthine incorporation assay based liquid scintillation spectrometric method; assay type: functional, organism-based
Plasmodium falciparum [7] = assay: Antimalarial activity against chloroquine-sensitive Plasmodium falciparum 3D7 infected in human red blood cells assessed as reduction in parasite growth incubated for 72 hrs by SYBR green I-based DNA quantification assay; assay type: functional, organism-based, Red blood cell; settings: 3D7, Erythrocyte
Plasmodium falciparum [8] = assay: Antimalarial activity against multidrug-resistant Plasmodium falciparum Dd2 infected in human red blood cells assessed as reduction in parasite growth incubated for 72 hrs by SYBR green I-based DNA quantification assay; assay type: functional, organism-based, Red blood cell; settings: Dd2, Erythrocyte
Plasmodium falciparum [9] = assay: Antimalarial activity against chloroquine-sensitive Plasmodium falciparum NF54 infected in human red blood cells assessed as reduction in parasite growth incubated for 72 hrs by SYBR green I-based DNA quantification assay; assay type: functional, organism-based, Red blood cell; settings: NF54, Erythrocyte
Plasmodium falciparum [10] = assay: Antimalarial activity against chloroquine resistant Plasmodium falciparum K1 assessed as inhibition of parasite growth incubated for 72 hrs by HRP2-based ELISA assay; assay type: functional, organism-based; settings: K1, 72 h
Plasmodium falciparum [11] = assay: Antimalarial activity against multidrug-resistant early ring stage Plasmodium falciparum K14 infected in human erythrocytes assessed as inhibition of parasite growth incubated for 48 hrs by [3H]-hypoxanthine incorporation assay; assay type: functional, organism-based; settings: K14, Erythrocyte
Plasmodium falciparum [12] = assay: Antimalarial activity against drug-resistant Plasmodium falciparum K1 assessed as inhibition of parasite growth; assay type: functional, organism-based
Plasmodium falciparum [13] = assay: Antimalarial activity against drug-sensitive Plasmodium falciparum FCR3 assessed as inhibition of parasite growth; assay type: functional, organism-based
Plasmodium falciparum [14] = assay: Antimalarial activity against chloroquine and pyrimethamine resistant Plasmodium falciparum K1 infected in human red blood cells assessed as inhibition of parasite growth incubated for 72 hrs by [3H]-hypoxanthine incorporation assay based liquid scintillation counter method; assay type: functional, organism-based, Red blood cell; settings: K1, Erythrocyte
Plasmodium falciparum [15] = assay: Antimalarial activity against chloroquine-sensitive Plasmodium falciparum NF54 infected in human red blood cells assessed as inhibition of parasite growth incubated for 72 hrs by [3H]-hypoxanthine incorporation assay based liquid scintillation counter method; assay type: functional, organism-based, Red blood cell; settings: NF54, Erythrocyte
Plasmodium falciparum [16] = assay: Antimalarial activity against Plasmodium falciparum Cam3.I^R539T assessed as inhibition of parasite growth measured after 6 hrs; assay type: functional

**Q.** With `OC(CN1CCC2(CC1)CC(O)c1ccc3ccccc3c1O2)c1ccc(F)c(F)c1` (stereo unspecified) as the molecule, how does the pEC50 (Plasmodium falciparum [1]) read?
**A.** 6.41

**Q.** For `O=C1CCCCC12Oc1c(Cl)cccc1C2=O` (stereo unspecified), which IC50 (Plasmodium falciparum [2]) is on record?
**A.** 29.3 µg/mL (≈ 117 µM)

**Q.** With `C[C@@H]1CC[C@]2(C[C@H]3C[C@H]4[C@@H]5CCC67OC6C(=O)CC[C@]7(C)[C@H]5CC[C@]4(C)[C@H]3[C@@H]2C)OC1` (stereo partly specified) as the molecule, how does the pIC50 (Plasmodium falciparum [3]) read?
**A.** 5.00

**Q.** What about the pIC50 (Plasmodium falciparum [4]) of the same molecule?
**A.** 5.07

**Q.** How did the pIC50 (Plasmodium falciparum [5]) turn out when `CCCCCCCCCCCCCC1OC2CC(O)C=CC23C1C(=O)N3Cc1ccccc1` (stereo unspecified) was run?
**A.** 6.07

**Q.** And the pIC50 (Plasmodium falciparum [6])?
**A.** 5.26

**Q.** With `COc1cc2c(cc1OC)C1(NCC2)C(=O)Nc2ccc(Cl)cc21` (stereo unspecified) as the molecule, how does the pEC50 (Plasmodium falciparum [7]) read?
**A.** 5.73

**Q.** What about the pEC50 (Plasmodium falciparum [8]) of the same molecule?
**A.** 5.76

**Q.** What about the pEC50 (Plasmodium falciparum [9]) of the same molecule?
**A.** 6.16

**Q.** With `COc1ccc(COCCC2NCCC23C(=O)Nc2ccccc23)cc1` (stereo unspecified) as the molecule, how does the pIC50 (Plasmodium falciparum [10]) read?
**A.** 4.97

**Q.** With `O=C1C=Cc2cc(O)c(O)cc2C12C(=O)C=Cc1cc(O)c(O)cc12` as the molecule, how does the pIC50 (Plasmodium falciparum [11]) read?
**A.** 5.63

**Q.** What does the source list for `CNCCc1cc(Br)c(OCCCNC(=O)N(C)CCc2cc(Br)c(OCCCNC(=O)C3=NO[C@]4(CC(Br)=C(OC)C(Br)=CO4)[C@@H]3O)c(Br)c2)c(Br)c1`?
**A.** IC50 (Plasmodium falciparum [12]): 1.03 µg/mL (≈ 0.904 µM); IC50 (Plasmodium falciparum [13]): 0.77 µg/mL (≈ 0.676 µM)

**Q.** Which results are given for `CCCCCCCCCCCCC[C@@H]1C[C@@H](O)C[C@]2(CCC3(C=CC(=O)C=C3)O2)O1` [ACULEATIN A]?
**A.** pIC50 (Plasmodium falciparum [14]): 6.74; pIC50 (Plasmodium falciparum [15]): 6.70

**Q.** Which IC90 (Plasmodium falciparum [16]) does the source give for `C[C@H]1[C@@H](O)O[C@@H]2O[C@@]3(C)CC[C@H]4[C@H](C)CC[C@@H]1[C@@]24OO3` [ARTENIMOL] here?
**A.** 0.0027 µg/mL (≈ 0.0095 µM)
